Activity data for one compound are collected here from ChEMBL document CHEMBL4330132, “5-Keto-3-cyano-2,4-diaminothiophenes as selective maternal embryonic leucine zipper kinase inhibitors” (Bioorg Med Chem Lett, 2019).

Assay [1] deals with Dual specificity mitogen-activated protein kinase kinase 1 (Homo sapiens) (UniProt Q02750). Kind of assay: Binding affinity to wild-type human full length MEK1 (M1 to V393 residues) expressed in mammalian expression system assessed as residual binding level at 1 uM by Kinomescan method relative to control.
In assay [2] the target is Tyrosine-protein kinase ABL1 (Homo sapiens) (UniProt P00519). Kind of assay: Binding affinity to wild-type human phosphorylated ABL1 (S229 to K512 residues) expressed in mammalian expression system assessed as residual binding level at 1 uM by Kinomescan method relative to control.
Assay [3] has as its target Serine/threonine-protein kinase MRCK alpha (Homo sapiens) (UniProt Q5VT25). Kind of assay: Binding affinity to wild-type human partial length MRCKA (L57 to V418 residues) expressed in bacterial expression system assessed as residual binding level at 1 uM by Kinomescan method relative to control.
Assay [4] deals with Receptor-interacting serine/threonine-protein kinase 1 (Homo sapiens) (UniProt Q13546). Kind of assay: Binding affinity to wild-type human partial length RIPK1 (M1 to K305 residues) expressed in bacterial expression system assessed as residual binding level at 1 uM by Kinomescan method relative to control.
Assay [5] concerns Serine/threonine-protein kinase B-raf (Homo sapiens), P15056 [V600E]. Kind of assay: Binding affinity to human partial length BRAF V600E mutant (S429 to E741 residues) expressed in mammalian expression system assessed as residual binding level at 1 uM by Kinomescan method relative to control.
For assay [6], the target named is Tyrosine-protein kinase BTK (Homo sapiens) (UniProt Q06187). Kind of assay: Binding affinity to wild-type human full length BTK (M1 to S659 residues) expressed in mammalian expression system assessed as residual binding level at 1 uM by Kinomescan method relative to control.
For assay [7], the target named is Ribosomal protein S6 kinase alpha-2 (Homo sapiens) (UniProt Q15349). Description: Binding affinity to wild-type human partial length N-terminal RSK3 kinase domain 1 (M1 to Q385 residues) expressed in bacterial expression system assessed as residual binding level at 1 uM by Kinomescan method relative to control.
For assay [8], the system named is Tyrosine-protein kinase ABL1 (Homo sapiens), P00519 [F317L]. Kind of assay: Binding affinity to human phosphorylated ABL1 F317L mutant (S229 to K512 residues) expressed in mammalian expression system assessed as residual binding level at 1 uM by Kinomescan method relative to control.
Assay [9] concerns the target Phosphatidylinositol 4,5-bisphosphate 3-kinase catalytic subunit delta isoform (Homo sapiens) (UniProt O00329). Kind of assay: Binding affinity to wild-type human partial length PIK3CD (R108 to Q1044 residues) expressed in mammalian expression system assessed as residual binding level at 1 uM by Kinomescan method relative to control.
For assay [10], the target named is Casein kinase I isoform gamma-3 (Homo sapiens) (UniProt Q9Y6M4). Description: Binding affinity to wild-type human full length CSNK1G3 (M1 to K447 residues) expressed in bacterial expression system assessed as residual binding level at 1 uM by Kinomescan method relative to control.
In assay [11] the target is Cyclin-dependent kinase-like 5 (Homo sapiens) (UniProt O76039). Description: Binding affinity to wild-type human partial length CDKL5 (M1 to S337 residues) expressed in mammalian expression system assessed as residual binding level at 1 uM by Kinomescan method relative to control.
In assay [12] the test system is Phosphatidylinositol 4,5-bisphosphate 3-kinase catalytic subunit alpha isoform (Homo sapiens), P42336 [M1043I]. Description: Binding affinity to human partial length PIK3CA M1043I mutant (R108 to N1068 residues) expressed in mammalian expression system assessed as residual binding level at 1 uM by Kinomescan method relative to control.
The target of assay [13] is Dual specificity tyrosine-phosphorylation-regulated kinase 2 (Homo sapiens) (UniProt Q92630). Kind of assay: Binding affinity to wild-type human full length DYRK2 (M1 to S528 residues) expressed in mammalian expression system assessed as residual binding level at 1 uM by Kinomescan method relative to control.
The target of assay [14] is Serine/threonine-protein kinase Nek5 (Homo sapiens) (UniProt Q6P3R8). Kind of assay: Binding affinity to wild-type human partial length NEK5 (M1 to M279 residues) expressed in bacterial expression system assessed as residual binding level at 1 uM by Kinomescan method relative to control.
Assay [15] addresses Cyclin-dependent kinase 4/cyclin D1 (Homo sapiens) (UniProt P11802+P24385). Description: Binding affinity to wild-type human full length CDK4/cyclinD1 (M1 to E303 residues) expressed in mammalian expression system assessed as residual binding level at 1 uM by Kinomescan method relative to control.
Assay [16] concerns the target Tyrosine-protein kinase Fes/Fps (Homo sapiens) (UniProt P07332). Description: Binding affinity to wild-type human partial length FES (I527 to R822 residues) expressed in bacterial expression system assessed as residual binding level at 1 uM by Kinomescan method relative to control.
Assay [17] deals with Protein kinase C theta type (Homo sapiens) (UniProt Q04759). Kind of assay: Binding affinity to wild-type human partial length PRKCQ (L350 to S706 residues) expressed in bacterial expression system assessed as residual binding level at 1 uM by Kinomescan method relative to control.
Assay [18] has as its target Serine/threonine-protein kinase 25 (Homo sapiens) (UniProt O00506). Kind of assay: Binding affinity to wild-type human partial length YSK1 (V14 to H295 residues) expressed in bacterial expression system assessed as residual binding level at 1 uM by Kinomescan method relative to control.
In assay [19] the target is Leukocyte tyrosine kinase receptor (Homo sapiens) (UniProt P29376). Kind of assay: Binding affinity to wild-type human partial length LTK (P422 to S744 residues) expressed in bacterial expression system assessed as residual binding level at 1 uM by Kinomescan method relative to control.
For assay [20], the target named is Cyclin-dependent kinase 11B (Homo sapiens) (UniProt P21127). Kind of assay: Binding affinity to wild-type human partial length CDC2L1 (P353 to G692 residues) expressed in bacterial expression system assessed as residual binding level at 1 uM by Kinomescan method relative to control.
In assay [21] the target is Tyrosine-protein kinase Fyn (Homo sapiens) (UniProt P06241). Description: Binding affinity to wild-type human partial length FYN (T243 to L534 residues) expressed in bacterial expression system assessed as residual binding level at 1 uM by Kinomescan method relative to control.
The subject of assay [22] is Epidermal growth factor receptor (Homo sapiens), P00533 [L861Q]. Kind of assay: Binding affinity to human partial length EGFR L861Q mutant (R669 to V1011 residues) expressed in bacterial expression system assessed as residual binding level at 1 uM by Kinomescan method relative to control.
In assay [23] the target is Casein kinase I isoform gamma-1 (Homo sapiens) (UniProt Q9HCP0). Description: Binding affinity to wild-type human partial length CSNK1G1 (T15 to S353 residues) expressed in bacterial expression system assessed as residual binding level at 1 uM by Kinomescan method relative to control.
Assay [24] concerns the target Cyclin-dependent kinase 7 (Homo sapiens) (UniProt P50613). Kind of assay: Binding affinity to wild-type human full length CDK7 (M1 to L344 residues) expressed in mammalian expression system assessed as residual binding level at 1 uM by Kinomescan method relative to control.

Chain of Protein kinase C theta type (Homo sapiens) (Q04759 whole entry, looked up, the tested form may be a part): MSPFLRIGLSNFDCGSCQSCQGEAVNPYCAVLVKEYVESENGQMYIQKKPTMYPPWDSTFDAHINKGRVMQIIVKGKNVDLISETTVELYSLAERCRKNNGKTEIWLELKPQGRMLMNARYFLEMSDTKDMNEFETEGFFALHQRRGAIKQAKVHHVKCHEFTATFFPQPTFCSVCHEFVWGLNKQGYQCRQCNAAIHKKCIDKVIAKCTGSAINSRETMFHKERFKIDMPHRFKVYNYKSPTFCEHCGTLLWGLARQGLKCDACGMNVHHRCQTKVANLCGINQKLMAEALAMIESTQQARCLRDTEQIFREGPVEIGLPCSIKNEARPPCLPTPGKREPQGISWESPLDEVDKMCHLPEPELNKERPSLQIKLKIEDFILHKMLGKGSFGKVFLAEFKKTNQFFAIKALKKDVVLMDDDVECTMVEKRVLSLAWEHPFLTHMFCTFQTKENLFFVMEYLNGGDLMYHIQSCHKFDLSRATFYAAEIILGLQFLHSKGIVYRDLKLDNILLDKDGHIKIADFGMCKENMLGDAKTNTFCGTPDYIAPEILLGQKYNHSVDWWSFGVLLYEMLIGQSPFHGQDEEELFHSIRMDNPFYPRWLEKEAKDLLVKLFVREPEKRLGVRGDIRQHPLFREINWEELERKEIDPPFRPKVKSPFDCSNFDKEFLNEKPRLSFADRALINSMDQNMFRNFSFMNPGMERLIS
Chain of Casein kinase I isoform gamma-3 (Homo sapiens) (Q9Y6M4 whole entry, looked up, the tested form may be a part, canonical isoform): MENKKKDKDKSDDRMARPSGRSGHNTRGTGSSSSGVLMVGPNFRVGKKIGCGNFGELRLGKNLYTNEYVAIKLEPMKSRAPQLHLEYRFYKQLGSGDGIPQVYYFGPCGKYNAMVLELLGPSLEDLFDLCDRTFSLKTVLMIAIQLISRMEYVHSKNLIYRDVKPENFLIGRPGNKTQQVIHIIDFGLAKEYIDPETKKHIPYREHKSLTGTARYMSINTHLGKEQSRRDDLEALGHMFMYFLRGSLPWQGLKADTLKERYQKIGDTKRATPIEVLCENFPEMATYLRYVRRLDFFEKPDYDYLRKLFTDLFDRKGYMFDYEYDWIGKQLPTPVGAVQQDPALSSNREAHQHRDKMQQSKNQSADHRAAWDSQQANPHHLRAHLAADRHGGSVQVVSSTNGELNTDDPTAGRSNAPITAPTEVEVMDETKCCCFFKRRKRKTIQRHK
Chain of Tyrosine-protein kinase BTK (Homo sapiens) (Q06187 whole entry, the tested form may be a part): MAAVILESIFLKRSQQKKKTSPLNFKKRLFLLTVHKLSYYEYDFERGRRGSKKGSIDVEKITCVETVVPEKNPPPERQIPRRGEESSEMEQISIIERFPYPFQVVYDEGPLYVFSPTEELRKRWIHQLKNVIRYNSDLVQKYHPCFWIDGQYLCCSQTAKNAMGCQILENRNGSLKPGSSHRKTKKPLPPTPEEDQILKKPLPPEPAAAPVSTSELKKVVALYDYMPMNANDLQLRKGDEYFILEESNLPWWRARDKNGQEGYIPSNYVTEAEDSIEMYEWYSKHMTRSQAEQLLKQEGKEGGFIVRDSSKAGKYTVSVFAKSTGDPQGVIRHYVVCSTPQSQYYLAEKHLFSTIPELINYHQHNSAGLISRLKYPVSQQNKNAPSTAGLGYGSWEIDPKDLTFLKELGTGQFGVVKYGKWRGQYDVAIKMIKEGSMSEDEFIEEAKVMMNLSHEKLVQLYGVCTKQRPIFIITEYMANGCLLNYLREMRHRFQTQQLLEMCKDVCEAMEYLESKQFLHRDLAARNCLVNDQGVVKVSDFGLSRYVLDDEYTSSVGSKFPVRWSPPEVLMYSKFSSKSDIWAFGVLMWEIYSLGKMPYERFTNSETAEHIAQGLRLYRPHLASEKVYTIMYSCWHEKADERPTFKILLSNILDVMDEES
Chain of Phosphatidylinositol 4,5-bisphosphate 3-kinase catalytic subunit delta isoform (Homo sapiens) (O00329 whole entry, the tested form may be a part, canonical isoform): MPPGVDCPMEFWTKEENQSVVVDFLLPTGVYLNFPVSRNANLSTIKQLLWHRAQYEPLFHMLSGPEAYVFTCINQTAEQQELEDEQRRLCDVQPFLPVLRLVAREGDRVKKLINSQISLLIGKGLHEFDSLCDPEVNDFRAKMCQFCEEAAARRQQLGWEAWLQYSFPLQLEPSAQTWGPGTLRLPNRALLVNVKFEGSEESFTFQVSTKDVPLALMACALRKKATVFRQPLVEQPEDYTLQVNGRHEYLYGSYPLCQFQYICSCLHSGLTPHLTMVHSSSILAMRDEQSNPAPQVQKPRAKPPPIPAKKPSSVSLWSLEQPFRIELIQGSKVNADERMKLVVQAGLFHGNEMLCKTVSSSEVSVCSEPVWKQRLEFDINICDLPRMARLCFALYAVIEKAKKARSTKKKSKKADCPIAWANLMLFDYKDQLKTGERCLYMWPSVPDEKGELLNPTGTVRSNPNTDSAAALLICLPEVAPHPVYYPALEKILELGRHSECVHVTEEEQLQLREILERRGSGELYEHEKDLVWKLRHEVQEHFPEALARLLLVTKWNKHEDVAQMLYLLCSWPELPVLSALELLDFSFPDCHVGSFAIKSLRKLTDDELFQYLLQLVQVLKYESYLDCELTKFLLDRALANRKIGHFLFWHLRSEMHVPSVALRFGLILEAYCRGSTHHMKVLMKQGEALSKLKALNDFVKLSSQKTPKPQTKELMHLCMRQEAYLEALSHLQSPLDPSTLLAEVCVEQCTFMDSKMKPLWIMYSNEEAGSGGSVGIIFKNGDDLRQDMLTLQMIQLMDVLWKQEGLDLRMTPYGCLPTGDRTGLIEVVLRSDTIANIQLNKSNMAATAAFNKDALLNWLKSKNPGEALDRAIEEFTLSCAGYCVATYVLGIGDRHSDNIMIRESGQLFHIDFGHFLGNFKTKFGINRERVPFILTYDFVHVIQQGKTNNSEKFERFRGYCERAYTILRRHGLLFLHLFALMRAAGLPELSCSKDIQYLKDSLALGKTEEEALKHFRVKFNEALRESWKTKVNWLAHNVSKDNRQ
Chain of Tyrosine-protein kinase Fes/Fps (Homo sapiens) (P07332 whole entry, the tested form may be a part): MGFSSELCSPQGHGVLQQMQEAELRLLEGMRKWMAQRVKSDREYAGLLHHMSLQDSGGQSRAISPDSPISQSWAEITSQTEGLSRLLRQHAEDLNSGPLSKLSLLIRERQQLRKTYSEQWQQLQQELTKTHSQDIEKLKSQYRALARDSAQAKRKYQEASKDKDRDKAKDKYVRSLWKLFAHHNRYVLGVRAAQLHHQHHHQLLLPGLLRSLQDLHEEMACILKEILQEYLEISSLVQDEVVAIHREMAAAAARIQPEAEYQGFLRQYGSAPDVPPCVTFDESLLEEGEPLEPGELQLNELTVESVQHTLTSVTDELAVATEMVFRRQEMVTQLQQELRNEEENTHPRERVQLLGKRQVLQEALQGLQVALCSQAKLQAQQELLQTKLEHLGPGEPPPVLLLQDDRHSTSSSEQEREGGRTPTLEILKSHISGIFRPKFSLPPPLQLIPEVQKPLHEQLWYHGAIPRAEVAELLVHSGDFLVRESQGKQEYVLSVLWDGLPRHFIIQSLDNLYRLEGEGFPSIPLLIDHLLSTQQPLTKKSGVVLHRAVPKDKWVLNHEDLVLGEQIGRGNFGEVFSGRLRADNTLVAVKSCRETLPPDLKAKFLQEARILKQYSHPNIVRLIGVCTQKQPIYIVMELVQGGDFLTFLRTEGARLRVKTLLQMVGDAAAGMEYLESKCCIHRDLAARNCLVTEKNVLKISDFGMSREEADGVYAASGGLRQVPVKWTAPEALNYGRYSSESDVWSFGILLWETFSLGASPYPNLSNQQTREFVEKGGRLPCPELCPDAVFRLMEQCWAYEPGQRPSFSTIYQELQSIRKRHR
Chain of Tyrosine-protein kinase ABL1 (Homo sapiens) (P00519 whole entry, the tested form may be a part): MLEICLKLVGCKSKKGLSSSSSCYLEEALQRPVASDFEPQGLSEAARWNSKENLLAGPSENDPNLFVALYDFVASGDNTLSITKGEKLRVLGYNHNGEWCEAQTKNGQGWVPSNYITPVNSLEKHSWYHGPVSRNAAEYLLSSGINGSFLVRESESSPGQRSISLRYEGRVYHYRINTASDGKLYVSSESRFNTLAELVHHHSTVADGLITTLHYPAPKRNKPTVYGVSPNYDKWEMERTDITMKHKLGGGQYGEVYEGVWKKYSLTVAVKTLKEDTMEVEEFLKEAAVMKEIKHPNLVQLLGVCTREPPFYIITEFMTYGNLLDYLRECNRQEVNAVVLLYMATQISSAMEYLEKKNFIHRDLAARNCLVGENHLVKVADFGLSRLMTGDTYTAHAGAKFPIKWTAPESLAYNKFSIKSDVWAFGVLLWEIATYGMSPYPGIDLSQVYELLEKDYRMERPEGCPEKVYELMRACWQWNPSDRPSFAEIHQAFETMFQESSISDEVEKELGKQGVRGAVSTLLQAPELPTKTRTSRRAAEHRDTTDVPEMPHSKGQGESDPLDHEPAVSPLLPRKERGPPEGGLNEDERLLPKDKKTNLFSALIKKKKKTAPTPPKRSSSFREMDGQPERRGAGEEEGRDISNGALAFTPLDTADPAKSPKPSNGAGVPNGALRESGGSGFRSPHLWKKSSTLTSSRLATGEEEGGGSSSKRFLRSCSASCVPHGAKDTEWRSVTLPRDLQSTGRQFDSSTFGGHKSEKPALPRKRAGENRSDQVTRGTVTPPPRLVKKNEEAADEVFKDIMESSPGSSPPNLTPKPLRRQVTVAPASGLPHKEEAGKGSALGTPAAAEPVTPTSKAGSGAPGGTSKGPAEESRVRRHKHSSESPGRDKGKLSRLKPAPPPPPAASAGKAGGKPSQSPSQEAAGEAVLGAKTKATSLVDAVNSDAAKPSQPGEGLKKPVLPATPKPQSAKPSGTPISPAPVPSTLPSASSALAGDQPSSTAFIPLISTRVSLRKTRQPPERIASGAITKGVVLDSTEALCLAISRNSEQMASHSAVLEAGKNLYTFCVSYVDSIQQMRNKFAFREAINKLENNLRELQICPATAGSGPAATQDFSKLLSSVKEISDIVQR
Chain of Tyrosine-protein kinase ABL1 (Homo sapiens), P00519 [F317L] (P00519 whole entry F317L, the tested form may be a part, canonical isoform): as the sequence (P00519 whole entry, the tested form may be a part) above, with F317L counted along it

On to `CC(C)Nc1sc(C(=O)c2ccc(Cl)s2)c(N)c1C#N`, for which the Activity in assay [1] is 96%; in assay [2], 100%; in [3], 87%; in [4] it was 100%; in assay [5], 97%; in [6] it was 74%. The Activity in assay [7] was found to be 54%; in assay [8], 100%; in assay [9] it was 78%; in assay [10], 77%; in [11], 100%; in assay [12] it was 97%. Also, the Activity in [13] turned out to be 100%; in [14], 91%; in assay [15], 100%; in assay [16] it was 98%; in assay [17], 57%; in assay [18], 81%. Besides, the Activity in [19] is 100%; in assay [20], 100%; in [21], 91%; in assay [22], 96%; in assay [23], 95%; in assay [24], 100%.
